Test results published in patent US10745731B2, “Recombinant production method” (Hoffmann-La Roche Inc., priority 2015, dated 2020).
Where two headings read alike, the source gives them in different places.

What was measured:
HEK293F cells [1] = test: Transient gene expression in HEK293F cells: cell specific productivity of the expressed antibody; format: cell-based, human; conditions: for specific productivity after 96 hours: none 2.01; for TGE enhancement after BAY11-7082 treatment compared to the corresponding single treatment: BAY11-7082 added 24 hours after stimulation; for activity at 0.015 µM: 15 nM; for Mean cell specific productivity: untreated 1.71
Description: HEK293F cells were cultivated in F17 medium (Life Technologies) in shaker flasks at 36.5° C., 7.0% CO2 and 80% humidity in a shaker incubator (Kuhner, Mytron). Cells were split every three to four days and were cultivated no longer than five weeks. To avoid overgrowth and to keep them in the exponential phase of growth, viable cell densities (VCD) never exceeded 60*10^5 cells/mL.
(§1) Transient gene expression is a 5-7 days lasting procedure. The standard operating procedure of this expression system is applicable to shaker flasks with various volumes of cell culture ranging from 80 mL to 2 L. First, half of the cell culture volume is seeded at a viable cell density (VCD) of 8*10^5 cells/mL. After two days of cultivation, cells are split to a VCD of about 12*10^5 cells/mL. On the next day, cells are transfected with a polyethylene imine (PEI)-based transfection reagent at a VCD between 20*10^5 cells/mL and 25*10^5 cells/mL. 3 hours after transfection, the production enhancer (if any) is added. 24 h after transfection, a feeding solution and a glucose bolus is supplemented to avoid the limitation of nutrients. Depending on cell viability, which should not decrease below 50%, the supernatant is harvested five to seven days post transfection and subjected to antibody purification.
(§2) To compare transient gene expression rates always the same plasmids encoding for one distinct antibody were co-transfected.
(§3) To co-transfect two plasmids equimolarily, the ratio of the base pair number of one plasmid to the total base pair number was calculated and multiplied with the total amount of DNA (0.5 mg/L). Plasmid one has a size of 10530 bp and plasmid two has a size of 7184 bp and were solved in water to a final concentration of 1 mg/mL. For transfection of one liter cell culture, 297 μL of plasmid one and 203 μl of plasmid two were dissolved in 40 mL phosphate buffered saline (PBS) at room temperature. 1.25 mL JetPEI® solution was added and the solution was mixed well. After incubation for 10-15 min., the mixture was added to the cells. The cells were transfected in a batch containing the whole cell culture necessary for every experiment to avoid variance arising from different transfection efficiencies.
(§4) 80 mL of the transfected cell culture batch was added to a 125 ml shaker flask. For every experiment, two or three 125 mL shaker flasks were used as biological replicates and treated the same way. Three hours after transfection, cells were split into 125 mL shaker flasks and the cellular treatments with small molecules or ligands were started. Basal protein expression was determined by untreated control samples. To compare samples with the standard operating procedure, cells were also treated with VPA to a final concentration of 4 mM or 3 mM. VPA and its analogues were dissolved in double distilled water. […] Tumor necrosis factor (TNF) alpha was reconstituted with PBS supplemented with 0.1% BSA. Flagellin was dissolved in sterile double distilled water. The applied molecules were not added to the cultivation directly, but diluted in 16 mL medium pre-warmed to 36.5° C. and added to the cultivation thereafter.
(§5) 24 h after transfection a feeding solution at 36.5° C. and 3 mg/mL glucose were added to the cultivation.
(§6) To determine cell viability and viable cell density (VCD) 1 mL cultivation medium (cell suspension) was transferred into a Cedex low fouling sample cup. The cup was placed into a Vicell instrument (Beckman Coulter). The instrument mixes cells with trypan blue to stain dead cells. After analysis of 50 images VCD was calculated and viability was determined by calculation of the percentage of viable cell number in relation to the total cell number.
(§7) Total concentration of the transiently expressed antibody was determined by a turbidimetric test. One mL cell suspension was transferred into an Eppendorf cup and centrifuged for 10 min. at 10,000 rpm (9,300 g).

HDAC [2] = conditions: cited from earlier work
HDAC [3] = test: in situ HDAC activity fluorimetric assay in HEK293F cells; format: cell-based, human; conditions: for HDAC inhibition: yes/no, summary table
Description: HDAC activity was determined by the in situ HDAC activity fluorimetric assay kit (Biovision) according to the manufacturer's instructions. HEK293F cells were suspended in F17 medium (Life Technologies) to a cell density of 5*10^5 cells/mL. One hundred micro liter culture was pipetted per well into a black ELISA plate. The plate was centrifuged at 1000 g for 5 min. The supernatant was discarded and the cells were resuspended in a reaction mix containing F17 medium, 1% HDAC substrate and the molecule tested towards HDAC inhibitory activity. 10 μM Trichostatin A was used as a positive control and the basal HDAC activity was determined by re-suspending the cells in F17 medium with 1% HDAC substrate. Furthermore, cells were resuspended in F17 medium without HDAC substrate as a background control. The HDAC activity assay was performed in triplicates for every sample as well as every control. The 96-well plate was incubated at 36.5° C., 80% humidity and 7% CO2 for one hour. During this time, the active HDACs deacetylate the HDAC substrate what releases the quenched fluorescent signal of the substrate. After incubation the fluorescent signal was analyzed by the infinite fluorescence plate reader (TECAN). The fluorescence signal of the samples and controls was normalized by subtracting the fluorescence signal of the background control. It is assumed that the fluorescent signal arising from deacetylation of the substrate directly correlates with HDAC activity.

HEK293F cells [4] = test: Transient gene expression in HEK293F cells: IgG concentration / titer (turbidimetric test); format: cell-based, human; conditions: none=100, N=1, FIG. 7
Description: as §1, §2, §3, §4, §5
as §7, with “g). The supernatant was transferred into a new cup and subjected to Cobas Integra 400 plus (Roche) analysis. With comparison to internal standard the absolute concentration was calculated.” for “g).”

HEK293F cells [5] = format: cell-based; conditions: in words
Description: as §6

[6] = description from the literature
[7] = 50 ng/mL, none=100, N=2, FIG. 5

Compound: O=C(NCC1(c2nc(-c3ccccc3)cs2)CCOCC1)c1cccc(-c2noc(C(F)(F)F)n2)c1 [TMP269]
- relative cell specific productivity (HEK293F cells [1]; employed concentration 15 μM, none=100, N=2, FIG. 2B): 99%
- HDAC class / isoform selectivity (HDAC [2]; [6]): preference to class IIa HDACs 4, 5, 7, and 9

Compound: CC(/C=C/C(=O)NO)=C\[C@@H](C)C(=O)c1ccc(N(C)C)cc1 [Trichostatin A]
- HDACi (HDAC [3]): 99%

Compound: Nc1cc(F)ccc1NC(=O)/C=C/c1cnn(C/C=C/c2ccccc2)c1 [RGFP966]
- relative IgG concentration (HEK293F cells [4]; 1 μM): 103%
- HDAC class / isoform selectivity (HDAC [2]; [6]): specific HDAC 3 inhibitor

Compound: Nc1ccccc1NC(=O)c1ccc(CNc2nccc(-c3cccnc3)n2)cc1 [Mocetinostat]
- activity at 2 µM (HEK293F cells [1]; Homo sapiens, HEK293F, employed concentration 2 μM, none=100, N=2, FIG. 2B, read-out: relative cell specific productivity): 135%
- HDAC class / isoform selectivity (HDAC [2]; [6]): lowest IC50 values for HDAC 1 and 2 and modest inhibitory activity against HDAC 3 and HDAC 11

Compound: EGF: epidermal growth factor, NFκB activator
- specific productivity after 96 hours (HEK293F cells [1]; 20 ng/mL, single treatment, N=3): 2.56 pg/cell/day
- relative cell specific productivity (HEK293F cells [1]; [7]): 173%
- TGE enhancement after BAY11-7082 treatment compared to the corresponding single treatment (HEK293F cells [1]): significantly reduced

Compound: Nc1ccccc1NC(=O)c1ccc(CNC(=O)OCc2cccnc2)cc1 [Entinostat]
- activity at 0.3 µM (HEK293F cells [1]; Homo sapiens, HEK293F, employed concentration 300 nM, none=100, N=2, FIG. 2B, read-out: relative cell specific productivity): 108%
- HDAC class / isoform selectivity (HDAC [2]; [6]): class I HDAC inhibitor with additional inhibitory activity to class IIa member HDAC 9

Compound: C/C=C1\NC(=O)[C@H]2CSSCC/C=C/[C@H](CC(=O)N[C@H](C(C)C)C(=O)N2)OC(=O)[C@H](C(C)C)NC1=O [Romidepsin]
- activity at 0.015 µM (HEK293F cells [1]; Homo sapiens, HEK293F, none=100, N=3, FIG. 8A, read-out: relative cell specific productivity): 203%
- activity at 0.015 µM (HEK293F cells [1]; Homo sapiens, HEK293F, none=100, N=3, FIG. 9A, read-out: relative cell specific productivity): 203%
- toxicity (HEK293F cells [5]): mild toxicity

Compound: COc1ccc(Cn2ccc3ccc(C(=O)NO)cc32)cc1 [PCI34051]
- relative IgG concentration (HEK293F cells [4]; 5 μM): 99%
- HDAC class / isoform selectivity (HDAC [2]; [6]): HDAC 8-specific inhibitor

Compound: Cc1ccc(NC(=O)CCCCCC(=O)Nc2ccccc2N)cc1 [pimelic diphenylamide 106]
- activity at 20 µM (HEK293F cells [1]; Homo sapiens, HEK293F, 20 μM, transfected control=100, N=3, FIG. 3B, read-out: relative cell specific productivity): 171%
- activity at 20 µM (HEK293F cells [1]; Homo sapiens, HEK293F, employed concentration 20 μM, none=100, N=2, FIG. 2B, read-out: relative cell specific productivity): 160%
- Mean cell specific productivity (HEK293F cells [1]; conc. 20 μM): 5.4 (20 μM) pg/cell/24 h
- HDACi (HDAC [3]; 20 μM, N=3, FIG. 3A): 22.6%
- HDAC inhibition (HDAC [3]): yes
- HDAC selectivity (HDAC [2]; HDAC classes, summary table): Class I
- HDAC class / isoform selectivity (HDAC [2]; [6]): class I HDAC inhibitor with highest affinity towards HDAC 1 and 3, high affinity towards HDAC 2 and modest affinity towards HDAC 8

Compound: CCCCOc1ccc(CC(=O)NO)cc1 [Bufexamac]
- activity at 10 µM (HEK293F cells [1]; Homo sapiens, HEK293F, employed concentration 10 μM, none=100, N=1, FIG. 2B, read-out: relative cell specific productivity): 94%
- HDAC class / isoform selectivity (HDAC [2]; [6]): selective class IIb HDAC inhibitor

Compound: CCCCCCCCCCCCCC(=O)O[C@@H]1[C@@H](C)[C@@]2(O)[C@@H](C=C(CO)C[C@]3(O)C(=O)C(C)=C[C@@H]23)[C@@H]2C(C)(C)[C@]12OC(C)=O [PMA, phorbol myristate acetate]
- activity at 0.1 µM (HEK293F cells [1]; Homo sapiens, HEK293F, 100 nM, none=100, N=2, FIG. 5, read-out: relative cell specific productivity): 149%

Compound: C=C(C)[C@@H]1CC[C@]2(C(=O)O)CC[C@]3(C)[C@H](CC[C@@H]4[C@@]5(C)CC[C@H](O)C(C)(C)[C@@H]5CC[C@]43C)[C@@H]12 [betulinic acid]
- activity at 10 µM (HEK293F cells [1]; Homo sapiens, HEK293F, 10 μM, none=100, N=2, FIG. 5, read-out: relative cell specific productivity): 121%

Compound: CCC(C)C(CC)C(=O)O (centres unmarked) [valnoctic acid]
- HDAC inhibitory activity (HDAC [2]; [6]): weak HDAC inhibitory activity

Compound: O=C(/C=C/c1cccc(S(=O)(=O)Nc2ccccc2)c1)NO [Belinostat]
- activity at 1 µM (HEK293F cells [1]; Homo sapiens, HEK293F, employed concentration 1 μM, none=100, N=2, FIG. 2B, read-out: relative cell specific productivity): 115%

Compound: CCC(=O)CCCCC[C@@H]1NC(=O)[C@H]2CCCCN2C(=O)[C@H]([C@@H](C)CC)NC(=O)[C@H](Cc2cn(OC)c3ccccc23)NC1=O [apicidin, Apicidin]
- relative IgG concentration (HEK293F cells [4]; 200 nM): 182%

Compound: TNFalpha
- relative cell specific productivity (HEK293F cells [1]; [7]): 139%
- specific productivity after 96 hours (HEK293F cells [1]; 50 ng/mL, single treatment, N=3): 2.66 pg/cell/day
- relative cell specific productivity (HEK293F cells [1]; 50 ng/mL, single treatment, none=100, N=3): 157%
- TGE enhancement after BAY11-7082 treatment compared to the corresponding single treatment (HEK293F cells [1]): significantly reduced

Compound: CCC(C)C(CC)C(N)=O (centres unmarked) [valnoctamide]
- TGE enhancement (HEK293F cells [1]; 2 mM, in words): Weak TGE enhancement
- activity at 3000 µM (HEK293F cells [1]; Homo sapiens, HEK293F, 3 mM, transfected control=100, N=3, FIG. 3B, read-out: relative cell specific productivity): 122%
- activity at 2000 µM (HEK293F cells [1]; Homo sapiens, HEK293F, employed concentration 2 mM, none=100, N=2, FIG. 4, read-out: relative cell specific productivity): 133%
- activity at 3000 µM (HEK293F cells [1]; Homo sapiens, HEK293F, employed concentration 3 mM, none=100, N=2, FIG. 4, read-out: relative cell specific productivity): 125%
- Mean cell specific productivity (HEK293F cells [1]; conc. 3 mM): 1.71 (3 mM) pg/cell/24 h
- Effect on titer/SPR (HEK293F cells [1]; summary table, in words): weak
- HDACi (HDAC [3]; 3 mM, N=3, FIG. 3A): 11.1%
- HDAC inhibition (HDAC [3]): no

Compound: Cc1ccc(S(=O)(=O)/C=C/C#N)cc1 [BAY 11-7082, BAY11-7082]
- specific productivity after 96 hours (HEK293F cells [1]; 1 μM alone, N=3): 2.21 pg/cell/day
- specific productivity after 96 hours (HEK293F cells [1]; 5 μM alone, N=3): 2.30 pg/cell/day
- specific productivity after 96 hours (HEK293F cells [1]; 15 μM alone, N=3): 2.27 pg/cell/day
- duration of the effect (HEK293F cells [1]; NFκB (IκB kinase) inhibition in transfected HEK293F cells): about 4 days
